Values quoted from earlier work, collected in patent US20230346899A1 (priority 2022, published 2023).

Test system: SARS-CoV-2
Conditions: moderate COVID-19 patients

Row | Substance | Median time to elimination of SARS-CoV-2 confirmed by RT-PCR, days (IQR) | Median time to improvement in clinical status by 2 points on the WHO-OSCI, days (IQR) | Median time to normalization of CRP concentration (≤10 mg/L) in patient's blood, days (IQR) | Median time to normalization of body temperature (<37° C.), days (IQR) | Median time to normalization of D-dimer concentration (<253 ng/mL) in patient's blood, days (IQR)
1 | favipiravir [FVP + SOC)] | 4.5 (4-9) days | 14.0 (11.5-16) days | 14.0 (5.5-14) days | 2.0 (1-3) days | 
2 | aprotinin | 7.5 (6-9) days | 11.0 (6-11) days | 6.0 (6-6) days | 3.0 (2-3) days | 4.5 (3-6) days
